From patent publication US20220401514A1, “ANTIMICROBIAL, BACTERIOPHAGE-DERIVED POLYPEPTIDES AND THEIR USE AGAINST GRAM-NEGATIVE AND ACID-FAST BACTERIA” (CONTRAFECT CORPORATION, priority 2019, published 2022)

Assays:
[1] = tested on: P. aeruginosa strain CFS-1292; experiment: Checkerboard assay (FICI) with antibiotics, P. aeruginosa; type: cell-based, Pseudomonas aeruginosa; design: key to FIC Index: FICI = FIC A + FIC B; each FIC = MIC in combination / MIC alone; settings: for FICI: CAA + […] human serum; for Chp peptide MIC in checkerboard: P. aeruginosa CFS-1292, CAA + […] human serum
Method in brief: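 Antibiotic diluted 2-fold along one plate axis against Chp peptide; bacteria added at 1×10^5 […] in CAA, optionally with human serum or pulmonary surfactant.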

Acinetobacter baumannii = experiment: microbe, parasite or virus in culture; type: cell-based
[2] = tested on: M. kansasii Hauduroy ATCC 12478; experiment: 45 hr MIC against M. kansasii (NTM), Mueller Hinton broth; type: cell-based, Mycobacterium kansasii
[3] = tested on: Pseudomonas aeruginosa, Escherichia coli, Enterobacter cloacae, Klebsiella pneumoniae, and Acinetobacter baumannii; experiment: MIC against a range of Gram-negative organisms (statements covering several species); type: cell-based; settings: Tables 40-44 isolates
Method in brief: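 Medium: CAA with added human serum. Peptides tested for minimal inhibitory concentration against each strain.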

M. fortuitum = experiment: 45 hr MIC against M. fortuitum (NTM); type: cell-based, Mycobacterium fortuitum; settings: M. fortuitum subsp. Fortuitum da Costa Cruz. ATCC 6841
M. avium = experiment: 45 hr MIC against M. avium (NTM); type: cell-based, Mycobacterium avium; settings: M. avium Chester ATCC 700898
Klebsiella pneumoniae = type: cell-based
Description: Determination of Minimal Inhibitory Concentrations (MIC).
Additional MIC testing was performed for several peptides against the ESKAPE pathogens Escherichia coli, Enterobacter cloacae, Klebsiella pneumoniae, and Acinetobacter baumannii, in CAA supplemented with human serum (Table D).

M. intracellulare = experiment: 45 hr MIC against M. intracellulare (NTM); type: cell-based, Mycobacterium intracellulare; settings: M. intracellulare (Cuttino and McCabe) Runyon ATCC 13950
[4] = A. baumannii isolates (n per peptide in table)
[5] = K. pneumoniae isolates (n per peptide in table)

MRLKMARRRYRLPRRRSRRLFSRTALRMHPRNRLRRIMRGGIRF [Chp2]
FIC Index ([1]; Chp peptide combined with Meropenem, P. aeruginosa CFS-1292): 0.375
FIC Index ([1]; Chp peptide combined with Piperacillin, P. aeruginosa CFS-1292): 1
FIC Index ([1]; Chp peptide combined with Tobramycin, P. aeruginosa CFS-1292): 0.375
interaction between the Chp peptide and the antibiotic (FICI values) ([1]; P. aeruginosa CFS-1292, range of antibiotics): either synergy (i.e., ≤0.5) or strongly additive (i.e., >0.5-1)
FICI ([1]; combination with Amikacin): 0.500
FICI ([1]; combination with Azithromycin): 0.156
FICI ([1]; combination with Aztreonam): 0.500
FICI ([1]; combination with Ciprofloxacin): 0.500
FICI ([1]; combination with Colistin): 0.375
FICI ([1]; combination with Fosfomycin): 0.250
FICI ([1]; combination with Gentamicin): 0.281
FICI ([1]; combination with Imipenem): 0.188
FICI ([1]; combination with Piperacillin): 0.188
FICI ([1]; combination with Rifampicin): 0.563
FICI ([1]; combination with Tobramycin): 0.266
Chp peptide FIC ([1]; combined with Amikacin, P. aeruginosa CFS-1292): 0.25
Chp peptide MIC in checkerboard ([1]; combined with Amikacin): 0.25 µg/mL
Chp peptide FIC ([1]; combined with Azithromycin, P. aeruginosa CFS-1292): 0.125
Chp peptide MIC in checkerboard ([1]; combined with Azithromycin): 0.0625 µg/mL
Chp peptide FIC ([1]; combined with Aztreonam, P. aeruginosa CFS-1292): 0.125
Chp peptide MIC in checkerboard ([1]; combined with Aztreonam): 0.0625 µg/mL
Chp peptide FIC ([1]; combined with Ciprofloxacin, P. aeruginosa CFS-1292): 0.25
Chp peptide MIC in checkerboard ([1]; combined with Ciprofloxacin): 0.125 µg/mL
Chp peptide FIC ([1]; combined with Colistin, P. aeruginosa CFS-1292): 0.125
Chp peptide MIC in checkerboard ([1]; combined with Colistin): 0.0625 µg/mL
Chp peptide FIC ([1]; combined with Gentamicin, P. aeruginosa CFS-1292): 0.0625
Chp peptide MIC in checkerboard ([1]; combined with Gentamicin): 0.03125 µg/mL
Chp peptide FIC ([1]; combined with Imipenem, P. aeruginosa CFS-1292): 0.25
Chp peptide MIC in checkerboard ([1]; combined with Imipenem): 0.125 µg/mL
Chp peptide FIC ([1]; combined with Levofloxacin, P. aeruginosa CFS-1292): 0.25
Chp peptide MIC in checkerboard ([1]; combined with Levofloxacin): 0.0625 µg/mL
Chp peptide FIC ([1]; combined with Meropenem, P. aeruginosa CFS-1292): 0.125
Chp peptide MIC in checkerboard ([1]; combined with Meropenem): 0.0625 µg/mL
Chp peptide FIC ([1]; combined with Piperacillin, P. aeruginosa CFS-1292): 0.5
Chp peptide MIC in checkerboard ([1]; combined with Piperacillin): 0.25 µg/mL
Chp peptide FIC ([1]; combined with Tobramycin, P. aeruginosa CFS-1292): 0.125
Chp peptide MIC in checkerboard ([1]; combined with Tobramycin): 0.0625 µg/mL
MIC50 (Acinetobacter baumannii; [4]): 0.5 µg/mL
MIC100 (Acinetobacter baumannii; [4]): 0.5 µg/mL
MIC Range (Acinetobacter baumannii; [4]): 0.25 to 1 µg/mL
MIC (Acinetobacter baumannii; Acinetobacter baumannii (clinical isolate HSS), RSC 30, CAA without human serum): 2 µg/mL
MIC (Acinetobacter baumannii; Acinetobacter baumannii (clinical isolate HSS), RSC 32, CAA without human serum): 2 µg/mL
MIC (Acinetobacter baumannii; Acinetobacter baumannii ATCC BAA 747, CAA supplemented with human serum): 0.125 µg/mL
45 hr MIC [2]: 2 µg/mL
activity (good = MIC100 of ≤4) against all of P. aeruginosa, K. pneumoniae, A. baumannii, E. cloacae, and E. coli [3]: good activity
45 hr MIC (M. fortuitum): 2 µg/mL
45 hr MIC (M. avium): 1 µg/mL
MIC50 (Klebsiella pneumoniae; [5]): 0.5 µg/mL
MIC100 (Klebsiella pneumoniae; [5]): 1 µg/mL
MIC Range (Klebsiella pneumoniae; [5]): 0.125 to 1 µg/mL
MIC (Klebsiella pneumoniae; Klebsiella pneumoniae HM-44, CAA supplemented with human serum): 0.125 µg/mL
45 hr MIC (M. intracellulare): 0.5 µg/mL
